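Interpolation was linear, between the two tested concentrations surrounding the appropriate level; five concentrations were tested over 48 hours in 96-well plates. At the GI50, growth is halved.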 Active and inactive are the calls of the source. Rule as the data show it: active = GI50 up to about 1.1 µM and inactive = higher.
Tests used:
Test in all cases: DTP human tumour cell line panel, 48 h
BT-549 = tested on: BT-549
DU-145 = tested on: DU-145
Hs-578T = tested on: Hs-578T
MDA-MB-231 = tested on: MDA-MB-231
MDA-MB-435 = tested on: MDA-MB-435
T47D = tested on: T47D
PC-3 = tested on: PC-3

Measured: GI50

COc1ccc(-c2cc(O)c3cc(C)cnc3n2)cc1
inactive: BT-549 2 µM | DU-145 19.2 µM | Hs-578T 4.66 µM | MDA-MB-231 16.2 µM | MDA-MB-435 1.85 µM | T47D 5.38 µM

C=CCN1C(=O)/C(=C/c2ccccc2)N=C1SC1OC(COC(=O)c2ccccc2)C(OC(=O)c2ccccc2)C1OC(=O)c1ccccc1 (stereo unspecified)
inactive: BT-549 > 100 µM | DU-145 > 100 µM | MDA-MB-231 91.2 µM | MDA-MB-435 > 100 µM | PC-3 > 100 µM

From ChEMBL document CHEMBL1201862, “PubChem BioAssay data set” (2004)
